Entries after “also recorded” stand apart in the source; their conditions may differ. Strand notation (5' to 3'): a small letter for the sugar, then the base; units joined by * are phosphorothioate-linked, units joined directly phosphodiester-linked; [ ] holds rarer units or linkages, { } end groups; capitals alone tell only the bases. d = 2'-deoxy (DNA)
Tests used:
Type in all cases: in vivo, rat
[1] = system: rats with hind paw inflammation (CFA rats); assay: Cold allodynia (acetone drop) in rats with CFA-induced hind paw inflammation
Method: (§1) In fifty-two rats anesthetized with Isoflurane (5% induction, 2.5% maintenance, 0.8 L/min O2 flow rate; Piramal Healthcare, UK), the right hind paw was injected intra-dermally with 100 μl of CFA (1:1, dissolved in normal saline; Sigma-Aldrich, Mo., USA), using a 1 ml syringe with a 25G needle attached. The animals (from now on, called CFA rats) were left to recover from anesthesia in a warm and quiet environment before relocating them in their corresponding cages.
(§2) In one set of experiments, called “preventive treatment”, four rats received a daily dose of 20 mg/kg IMT504 for five consecutive days and four weeks later one dose of 6 mg/kg (group a); a second group of four rats received one dose of 6mg/kg of IMT504 (group b) (FIG. 1A). Three days after the single injection of 6 mg/kg IMT504, all eight rats received intra-plantar CFA, after which they were tested for mechanical and cold allodynia during 21 days. At day 28, group b received an additional administration of IMT504 at a dose of 3 mg/kg and was evaluated until day 35.
For cold allodynia assessment, the reaction to the application of a drop of acetone onto the plantar surface of the hind paw was used. Both frequency of withdrawal and cold score (pain-like behavior intensity) were measured. […]

[2] = system: rats with post-incisional pain; assay: Mechanical allodynia in rats with post-incisional pain (plantar incision); settings: 6 mg/kg s.c. 48 h and 24 h before incision
Description: In twenty-four rats anesthetized with Isoflurane (5% induction, 2.5% maintenance, 0.8 L/min O2 flow rate; Scott-Cassara, Argentina), the right hind paw plantar skin was cleaned and disinfected. This was followed by a 1-cm longitudinal incision distal to heel and extending towards the toes, as previously described (Xu J, et al., 2011, 24(5): 508-514). The incision involved both plantar skin and fascia. This was followed by identification and longitudinal incision of plantar […] muscle, leaving its insertions intact. After achieving homeostasica, skin was sutured using a 5-0 nylon suture, protected with an antibacterial cream and the animal was returned to its retention cage, under observation, until full recovery from anesthesia.
Rats were subcutaneously administered 6 mg/kg of IMT504, 48 and 24 h before implementing the post-incisional pain model. This was followed by pain-like behavior testing for up to 21 days after injury.
For mechanical allodynia assessment, a set of von Frey filaments (Stoelting, Ill., USA) and the modified up-down method of Dixon were used, to establish the 50% withdrawal threshold. A withdrawal threshold of 0.21 oz or less was considered an allodynic response.

[3] = system: rats with hind paw inflammation (CFA rats); assay: Mechanical allodynia (von Frey, 50% withdrawal threshold) in rats with CFA-induced hind paw inflammation
Method: as §1, §2
In a second set of experiments, groups of rats were allocated to early or late treatment protocols (ET and LT, respectively), using a daily dose of 20 mg/kg IMT504 for five consecutive days (FIG. 2A). The ET protocol (n=5) was performed immediately after the intradermal injection of CFA in the hind paw; the LT protocol (n=5) was initiated seven days after the induction of hind paw inflammation (FIG. 2A). In all cases, animals where tested for pain-like behavior during four weeks after the induction of hind paw inflammation (days 1, 3, 7; weeks 2, 3 and 4).
In a third set of experiments, different concentrations and dosages of IMT504 were administered subcutaneously using the LT protocol (FIG. 3A). Rats were separated in three groups (n=5 per group) and treated as follows: i) a daily dose of 0.2 mg/kg of IMT504 for five consecutive days, ii) a daily dose of 2 mg/kg of IMT504 for five consecutive days, and iii) a daily dose of 2 mg/kg of IMT504 for three consecutive days. All these groups were tested for pain-like behavior up to seven weeks after induction of the hind paw inflammation.
Naïve (uninjured and untreated; n=16), CFA injured untreated (n=10), and vehicle-treated CFA (n=9) or SNI rats (n=10) were used as controls. Eight naïve rats remained untreated, four were vehicle-treated, and four received a daily dose of 20 mg/kg IMT504 for five consecutive days. Untreated CFA rats received an intradermal hind paw injection of CFA and no further treatment. Vehicle-treated CFA rats received five daily subcutaneous injections of saline (200 μl), starting seven days after injury. Vehicle-treated SNI rats received one single dose of saline (200 ul), starting seven days after injury.
For mechanical allodynia assessment, a set of von Frey filaments (Stoelting, Ill., USA) and the modified up-down method of Dixon were used, as described by Chaplan et al. (Chaplan S R, et, al., (1994) J. Neurosci Methods 53: 55-632) to establish the 50% withdrawal threshold. A withdrawal threshold of 6 g or less was considered an allodynic response.
In seventeen rats anesthetized with Isoflurane (5% induction, 2.5% maintenance, 0.8 L/min O2 flow rate; Scott-Cassara, Argentina), the right hind paw was injected intra-dermally with 100 μl of CFA (1:1, dissolved in normal saline; Sigma-Aldrich, MO, USA), using a 1 ml syringe with a 25G needle. The animals (called CFA rats) were left to recover from anesthesia in a warm and quiet environment before relocating in their corresponding cages.
Eight rats received a dose of 6 mg/kg IMT504 (FIGS. 2 and 3). Three days after the single injection of 6 mg/kg IMT504, all rats received intra-plantar complete Freund's Adjuvant (CFA), after which they were tested for mechanical and cold allodynia during 21-35 days. On day 28 (FIG. 1) or 28 (FIG. 2), rats receiving preventive IMT504 were administered additional IMT504 at a dose of 3 mg/kg (FIG. 1) or 2 mg/kg (FIG. 2), and assessed until days 21-35. […]

[4] = 6 mg/kg 3 days before CFA (FIG. 7)
[5] = 6 mg/kg 3 days before CFA, booster 3 mg/kg day 28
[6] = 20 mg/kg daily x5 plus single 6 mg/kg three days before CFA
[7] = 6 mg/kg 3 days before CFA (FIG. 6, FIG. 8)

Substance: IMT504: synthetic phosphorothioate oligodeoxynucleotide with sequence 5′-TCATCATTTTGTCATTTTGTCATT-3′ (SEQ ID No 1) (DNA dT*dC*dA*dT*dC*dA*dT*dT*dT*dT*dG*dT*dC*dA*dT*dT*dT*dT*dG*dT*dC*dA*dT*dT)
- period after induction of inflammation during which IMT504 prevents cold allodynia [1, 4]: 1 days
- time of reaching cold allodynic levels comparable to vehicle-treated rats [1, 4]: 7 days after injury
- effect of an additional dose of 3 mg/kg IMT504 28 days after injury on cold allodynia [1, 5]: full anti-allodynic effect; also recorded: complete reduction in mechanical and cold allodynia
- time at which the anti-allodynic effect (cold) of the reinforcement dose is lost [1, 5]: 35 days after injury
- progression of cold allodynia [1, 6]: very slow increase in cold withdrawal frequency; also recorded: slow progression towards cold allodynia
- time of peak of cold allodynia [1, 6]: 21 days after injury
- frequency of cold allodynia ([1]; both preventive groups, twenty days after injury): 60%
- time of peak of cold allodynia ([1]; single dose of 6 mg/kg only, three days before CFA): 21 days after injury
- protection against cold allodynia ([1]; single dose of 6 mg/kg only, three days before CFA, 6 mg/kg): more moderate anti-allodynic effect; also recorded: milder protection against cold allodynia
- cold allodynia vs injured vehicle-treated rats, days 1 and 3 after injury ([1]; single preventive dose of 6 mg/kg (FIG. 11B)): significantly lower than that observed in injured vehicle-treated rats
- cold allodynia vs vehicle-treated rats, from day 7 on ([1]; single preventive dose of 6 mg/kg (FIG. 11B), differences not statistically significant): always showed lower levels of cold allodynia than vehicle-treated rats
- day after injury from which basal withdrawal thresholds are shown [2]: 3 days
- mechanical withdrawal thresholds and responses to cold stimuli in contralateral hind paws ([2]; data not shown): remained normal
- reduction of mechanical withdrawal thresholds at 6 h and 1 day after injury ([2]; vs vehicle): lower reduction of withdrawal thresholds
- period after induction of inflammation during which IMT504 prevents mechanical allodynia [3, 7]: 7 days
- time of reaching allodynic levels comparable to vehicle-treated rats [3, 7]: 14 days after injury
- day by which mechanical withdrawal thresholds are fully comparable to injured untreated or vehicle-treated rats ([3]; 6 mg/kg 3 days before CFA, both groups (FIG. 10A, 11A)): 21 days
- lack of mechanical allodynia until ([3]; 6 mg/kg 3 days before CFA, group with booster on day 21 (FIG. 11A)): 7 days after injury
- lack of mechanical allodynia until ([3]; 6 mg/kg 3 days before CFA, group with booster on day 28 (FIG. 10A)): 3 days after injury
- effect of a booster dose of 2 mg/kg IMT504 21 days after injury on mechanical allodynia ([3]; 6 mg/kg 3 days before CFA, booster 2 mg/kg day 21 (FIG. 11A)): completely restored the anti-allodynic effect
- effect of an additional dose of 3 mg/kg IMT504 28 days after injury on mechanical allodynia ([3]; 6 mg/kg 3 days before CFA, booster 3 mg/kg day 28, observed one day after re-administration): quickly reverted; also recorded: complete reduction in mechanical and cold allodynia; also recorded: full recovery of basal withdrawal thresholds; also recorded: completely restored the anti-allodynic effect
- recovery of basal mechanical withdrawal thresholds, ET protocol ([3]; 20 mg/kg daily x5, started immediately after CFA): reaching basal levels seven days after treatment initiation; also recorded: reaching basal thresholds seven days after injury and onwards
- recovery of basal mechanical withdrawal thresholds, LT protocol ([3]; 20 mg/kg daily x5, started seven days after CFA): fully achieved seven days after initiation of the treatment; also recorded: recovery of basal mechanical withdrawal thresholds starting one week after treatment (two weeks after injury)
- withdrawal thresholds of contralateral hind paws ([3]; IMT504-treated CFA rats, data not shown): remained normal; also recorded: normal basal values
- start of progressive recovery towards basal mechanical withdrawal thresholds ([3]; LT protocols (0.2 or 2 mg/kg, three or five daily doses from day 7 after CFA), s.c.): 10 day after injury
- recovery of mechanical withdrawal threshold ([3]; LT, 0.2 mg/kg daily x5, s.c., 0.2 mg/kg): slower, incomplete recovery, never reaching basal withdrawal thresholds; also recorded: not reaching the basal level
- difference to vehicle-treated CFA rats towards the end of the assay ([3]; LT, 0.2 mg/kg daily x5, p>0.05): no significant differences with the vehicle-treated CFA rats
- reaching basal ipsilateral withdrawal thresholds, counted from initiation of treatment ([3]; LT, three or five daily doses of 2 mg/kg, s.c.): reaching basal ipsilateral withdrawal thresholds at day five after initiation of the treatment and onwards
- persistence of basal withdrawal thresholds ([3]; LT, three or five daily doses of 2 mg/kg, s.c., 2 mg/kg): maintained basal withdrawal thresholds throughout the whole assay period; also recorded: maintaining such a condition throughout the entire assay (seven weeks)
- time at which mechanical withdrawal thresholds reach allodynic levels ([3]; preventive IMT504 (20 mg/kg x5 + 6 mg/kg, or 6 mg/kg only) three days before CFA, both groups): 14 days after injury
- mechanical allodynia twenty-one days after injury ([3]; preventive IMT504, both groups, comparable to untreated CFA-rats): all animals reached basal allodynic levels
- lack / prevention of mechanical allodynia after CFA-induced inflammation ([3]; preventive IMT504: 20 mg/kg daily x5 plus 6 mg/kg four weeks later, or 6 mg/kg only, CFA three days after the 6 mg/kg dose, both groups): prevention of mechanical allodynia; also recorded: lack of mechanical allodynia during the first three days
- time from which basal withdrawal thresholds are recovered ([3]; single dose of 2 mg/kg, one week after CFA): 21 days after injury
- recovery of basal withdrawal thresholds ([3]; single dose of 2 mg/kg, one week after CFA, 2 mg/kg): slower, but finally complete, recovery of basal withdrawal thresholds; also recorded: slower, incomplete recovery, never reaching basal withdrawal thresholds
